Reference: ChEMBL document CHEMBL1201862, “PubChem BioAssay data set” (2004)
Each block holds one molecule with its values, some of them ahead of it. Active and inactive are the calls of the source.

Experiments:
CAAX prenyl protease 2 = target: T1, CAAX prenyl protease 2 (Saccharomyces cerevisiae S288c, UniProt Q03530); type: biochemical
T1 sequence (Q03530 whole entry): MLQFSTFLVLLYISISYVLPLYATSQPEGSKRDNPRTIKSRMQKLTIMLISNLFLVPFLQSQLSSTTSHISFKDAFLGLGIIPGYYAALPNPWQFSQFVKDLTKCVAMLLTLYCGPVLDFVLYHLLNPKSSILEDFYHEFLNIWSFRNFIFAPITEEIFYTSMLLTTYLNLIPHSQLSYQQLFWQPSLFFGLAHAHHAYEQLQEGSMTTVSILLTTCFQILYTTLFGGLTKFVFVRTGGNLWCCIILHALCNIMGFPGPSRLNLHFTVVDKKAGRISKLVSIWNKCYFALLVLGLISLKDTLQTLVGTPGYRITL

[1] = NIH-3T3 fibroblast cytotoxicity, dose response, cytotoxicity control, cell-based, fluorescence, Alamar Blue, secondary assay (AID 2327); type: functional;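 note: NIH-3T3 mouse fibroblasts cultured with fluconazole at 8 µg/mL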
[2] = target: Eukaryotic translation initiation factor 4E (Mus musculus, UniProt P63073); assay: blockers of eIF4G binding by eIF4E – biochemical, TR-FRET, dose response (AID 855); type: functional;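 note: potency for disrupting eIF4E binding to eIF4GI seen as loss of FRET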
[3] = fluconazole-exposed Candida albicans growth modulators – fluorescence, retest, confirmation (AID 2467); type: functional, cell-based
Cytochrome P450 2C9 = Cytochrome P450 2C9 (Homo sapiens, UniProt P11712)
Cytochrome P450 2D6 = Cytochrome P450 2D6 (Homo sapiens, UniProt P10635);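 note: CYP2D6 member of a cytochrome P450 panel assay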
Cytochrome P450 3A4 = Cytochrome P450 3A4 (Homo sapiens, UniProt P08684);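 note: CYP3A4 tested as one member of a cytochrome P450 panel screen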
[4] = target: DNA dC->dU-editing enzyme APOBEC-3A (Homo sapiens, UniProt P31941); assay: A3A deaminase inhibition for selectivity – biochemical, dose response (AID 504722); type: functional
[5] = target: T2, Rac GTPase-activating protein 1 (Homo sapiens, UniProt Q9H0H5); assay: blockers of MgcRacGAP-driven Rac1 GTP hydrolysis – biochemical, ADP Hunter fluorescence, primary and confirmatory, confirmation (AID 624330); type: functional
T2 sequence (Q9H0H5 whole entry): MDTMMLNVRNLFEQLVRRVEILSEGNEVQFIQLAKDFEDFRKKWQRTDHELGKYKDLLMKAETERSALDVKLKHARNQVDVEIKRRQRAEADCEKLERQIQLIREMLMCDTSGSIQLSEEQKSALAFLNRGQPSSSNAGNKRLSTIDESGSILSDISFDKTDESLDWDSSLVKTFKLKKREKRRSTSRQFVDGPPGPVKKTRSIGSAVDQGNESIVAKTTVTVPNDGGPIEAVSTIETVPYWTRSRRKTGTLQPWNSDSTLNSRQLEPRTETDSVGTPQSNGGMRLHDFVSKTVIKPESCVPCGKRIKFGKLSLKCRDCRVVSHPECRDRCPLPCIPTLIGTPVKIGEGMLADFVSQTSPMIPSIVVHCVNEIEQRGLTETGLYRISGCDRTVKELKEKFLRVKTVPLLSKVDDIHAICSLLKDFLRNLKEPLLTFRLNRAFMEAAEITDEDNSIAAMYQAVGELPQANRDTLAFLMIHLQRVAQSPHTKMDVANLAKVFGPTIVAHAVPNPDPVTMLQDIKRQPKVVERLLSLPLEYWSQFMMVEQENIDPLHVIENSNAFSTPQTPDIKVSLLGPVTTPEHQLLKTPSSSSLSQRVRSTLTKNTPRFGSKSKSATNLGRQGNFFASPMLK

[6] = target: FAD-linked sulfhydryl oxidase ALR (Homo sapiens, UniProt P55789); assay: ALR-catalysed DTT oxidation blockers – biochemical, H2O2 detection, luminescence, cherry-pick, dose response (AID 493248)
[7] = target: DNA dC->dU-editing enzyme APOBEC-3G (Homo sapiens, UniProt Q9HC16); assay: Dose Response confirmation of small molecule APOBEC3G DNA Deaminase Inhibitors via a fluorescence-based single-stranded DNA deaminase assay. [Related pubchem assays (depositor defined):AID493012, AID493028]; type: functional
[8] = target: T3, Heat shock factor protein 1 (Mus musculus, UniProt P38532); assay: enhancement of HSF1-driven luciferase signal – cell-based, NIH3T3, luminescence, dose retest, confirmation (AID 435004); type: functional;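 note: stress induced by proteasome inhibitor MG132 added 30 min after compound; luciferase reporter driven by HSF1 response element in NIH3T3 cells; actives raise luminescence as potentiators of the MG132 stress response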
T3 sequence (P38532 whole entry): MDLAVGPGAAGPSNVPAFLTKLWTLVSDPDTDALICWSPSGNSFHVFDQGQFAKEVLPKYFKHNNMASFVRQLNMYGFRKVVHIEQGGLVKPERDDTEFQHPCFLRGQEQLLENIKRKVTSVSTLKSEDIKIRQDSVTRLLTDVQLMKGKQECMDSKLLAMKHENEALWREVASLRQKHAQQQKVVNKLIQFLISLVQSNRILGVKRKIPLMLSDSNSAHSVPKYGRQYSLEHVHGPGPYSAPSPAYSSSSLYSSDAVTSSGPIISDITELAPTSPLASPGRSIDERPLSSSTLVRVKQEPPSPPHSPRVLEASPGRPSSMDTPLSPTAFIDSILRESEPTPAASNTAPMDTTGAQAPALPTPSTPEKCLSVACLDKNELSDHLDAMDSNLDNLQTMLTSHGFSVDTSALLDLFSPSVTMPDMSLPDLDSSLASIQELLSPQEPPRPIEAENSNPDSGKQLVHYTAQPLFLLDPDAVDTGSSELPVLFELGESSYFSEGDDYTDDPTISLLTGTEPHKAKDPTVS

[9] = target: DNA damage-inducible transcript 3 protein (Mus musculus, UniProt P35639); type: functional, Cricetulus griseus
Hexokinase HKDC1 = target: T4, Hexokinase HKDC1 (Homo sapiens, UniProt Q2TB90); assay: activation of HKDC1 glucose phosphorylation – biochemical, W721R variant, dose response (AID 504730); type: functional
T4 sequence (Q2TB90 whole entry): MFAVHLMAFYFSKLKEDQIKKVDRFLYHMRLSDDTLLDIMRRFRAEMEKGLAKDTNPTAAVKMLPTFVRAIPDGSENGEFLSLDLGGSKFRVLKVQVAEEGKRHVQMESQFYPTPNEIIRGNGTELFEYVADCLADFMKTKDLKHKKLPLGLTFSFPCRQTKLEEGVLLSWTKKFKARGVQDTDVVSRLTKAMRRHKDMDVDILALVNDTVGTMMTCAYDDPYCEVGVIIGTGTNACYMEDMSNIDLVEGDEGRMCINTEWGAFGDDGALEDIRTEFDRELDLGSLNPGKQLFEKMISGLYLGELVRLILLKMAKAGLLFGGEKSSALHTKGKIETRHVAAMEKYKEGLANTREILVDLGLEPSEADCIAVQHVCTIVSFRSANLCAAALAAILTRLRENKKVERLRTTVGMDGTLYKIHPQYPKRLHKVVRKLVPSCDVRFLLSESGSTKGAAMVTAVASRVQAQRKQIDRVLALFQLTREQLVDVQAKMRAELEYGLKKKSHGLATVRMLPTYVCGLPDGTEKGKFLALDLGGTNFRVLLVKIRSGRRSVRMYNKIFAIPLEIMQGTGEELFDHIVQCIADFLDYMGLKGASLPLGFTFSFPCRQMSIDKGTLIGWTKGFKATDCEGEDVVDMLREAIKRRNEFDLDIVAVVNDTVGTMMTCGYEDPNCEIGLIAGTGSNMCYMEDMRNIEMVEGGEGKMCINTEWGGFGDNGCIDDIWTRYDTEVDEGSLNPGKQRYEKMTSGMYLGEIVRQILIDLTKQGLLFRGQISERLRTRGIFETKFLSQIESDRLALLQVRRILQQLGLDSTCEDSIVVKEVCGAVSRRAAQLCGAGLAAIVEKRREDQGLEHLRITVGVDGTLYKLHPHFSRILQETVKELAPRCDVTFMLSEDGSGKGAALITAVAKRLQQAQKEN

Hexokinase-1 = target: T5, Hexokinase-1 (Homo sapiens, UniProt P19367); assay: HK1 enzyme activation by HKDC1 hits – biochemical, selectivity assay for HKDC1 activator project, dose response (AID 504762); type: functional
T5 sequence (P19367 whole entry): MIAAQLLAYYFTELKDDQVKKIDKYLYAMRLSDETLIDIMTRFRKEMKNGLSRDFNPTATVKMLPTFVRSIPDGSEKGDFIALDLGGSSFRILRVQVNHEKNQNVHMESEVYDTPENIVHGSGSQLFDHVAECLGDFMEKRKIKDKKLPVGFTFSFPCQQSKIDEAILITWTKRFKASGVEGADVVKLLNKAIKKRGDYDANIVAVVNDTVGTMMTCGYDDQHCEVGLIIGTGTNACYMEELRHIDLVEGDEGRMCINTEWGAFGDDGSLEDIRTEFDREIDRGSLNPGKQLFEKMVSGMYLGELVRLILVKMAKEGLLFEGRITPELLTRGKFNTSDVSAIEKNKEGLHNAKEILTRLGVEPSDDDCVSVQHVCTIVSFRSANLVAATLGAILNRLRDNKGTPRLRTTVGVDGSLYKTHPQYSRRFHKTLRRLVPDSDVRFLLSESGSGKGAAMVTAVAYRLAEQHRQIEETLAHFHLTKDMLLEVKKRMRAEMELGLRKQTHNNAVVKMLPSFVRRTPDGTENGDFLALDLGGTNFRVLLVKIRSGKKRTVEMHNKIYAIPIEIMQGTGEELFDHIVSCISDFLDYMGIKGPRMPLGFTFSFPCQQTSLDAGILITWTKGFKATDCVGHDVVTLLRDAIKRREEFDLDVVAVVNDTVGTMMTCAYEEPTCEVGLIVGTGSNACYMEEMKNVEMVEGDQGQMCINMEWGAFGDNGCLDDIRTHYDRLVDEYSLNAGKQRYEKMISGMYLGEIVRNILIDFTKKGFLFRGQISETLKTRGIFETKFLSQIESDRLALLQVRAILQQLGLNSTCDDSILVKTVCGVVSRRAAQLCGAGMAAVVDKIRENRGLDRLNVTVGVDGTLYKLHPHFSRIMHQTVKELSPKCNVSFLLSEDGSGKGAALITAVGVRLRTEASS

Chain of DNA dC->dU-editing enzyme APOBEC-3G (Q9HC16 whole entry): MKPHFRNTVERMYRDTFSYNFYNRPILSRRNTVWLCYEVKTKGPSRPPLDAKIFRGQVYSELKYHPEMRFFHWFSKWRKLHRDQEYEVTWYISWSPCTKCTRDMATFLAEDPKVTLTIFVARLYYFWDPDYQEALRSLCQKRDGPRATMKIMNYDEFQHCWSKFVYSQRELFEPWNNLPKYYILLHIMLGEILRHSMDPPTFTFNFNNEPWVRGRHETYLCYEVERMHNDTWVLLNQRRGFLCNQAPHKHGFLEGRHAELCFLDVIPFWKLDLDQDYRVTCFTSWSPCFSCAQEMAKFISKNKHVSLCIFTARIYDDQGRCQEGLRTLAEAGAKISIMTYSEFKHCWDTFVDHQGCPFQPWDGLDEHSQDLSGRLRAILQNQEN
Chain of DNA dC->dU-editing enzyme APOBEC-3A (P31941 whole entry): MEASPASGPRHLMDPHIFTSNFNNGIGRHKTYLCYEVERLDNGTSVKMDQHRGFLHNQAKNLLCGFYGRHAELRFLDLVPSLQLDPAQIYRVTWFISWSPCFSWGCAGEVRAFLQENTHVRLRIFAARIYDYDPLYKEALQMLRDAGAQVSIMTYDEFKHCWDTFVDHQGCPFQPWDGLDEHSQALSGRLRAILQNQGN
Chain of Cytochrome P450 2D6 (P10635 whole entry): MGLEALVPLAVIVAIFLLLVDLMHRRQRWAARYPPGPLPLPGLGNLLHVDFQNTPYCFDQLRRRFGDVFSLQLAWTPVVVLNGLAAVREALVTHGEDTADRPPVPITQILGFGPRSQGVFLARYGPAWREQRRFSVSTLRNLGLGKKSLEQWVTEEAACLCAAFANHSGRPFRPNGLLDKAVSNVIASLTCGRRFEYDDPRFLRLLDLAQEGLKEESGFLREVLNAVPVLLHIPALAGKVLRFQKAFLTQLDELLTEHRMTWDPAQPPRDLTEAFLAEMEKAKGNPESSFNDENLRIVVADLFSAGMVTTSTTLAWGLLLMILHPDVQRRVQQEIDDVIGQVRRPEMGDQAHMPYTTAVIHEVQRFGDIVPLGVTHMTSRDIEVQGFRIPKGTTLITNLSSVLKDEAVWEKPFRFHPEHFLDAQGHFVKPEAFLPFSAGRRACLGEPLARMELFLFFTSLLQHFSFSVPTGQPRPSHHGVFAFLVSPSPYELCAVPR
Chain of Cytochrome P450 2C9 (P11712 whole entry): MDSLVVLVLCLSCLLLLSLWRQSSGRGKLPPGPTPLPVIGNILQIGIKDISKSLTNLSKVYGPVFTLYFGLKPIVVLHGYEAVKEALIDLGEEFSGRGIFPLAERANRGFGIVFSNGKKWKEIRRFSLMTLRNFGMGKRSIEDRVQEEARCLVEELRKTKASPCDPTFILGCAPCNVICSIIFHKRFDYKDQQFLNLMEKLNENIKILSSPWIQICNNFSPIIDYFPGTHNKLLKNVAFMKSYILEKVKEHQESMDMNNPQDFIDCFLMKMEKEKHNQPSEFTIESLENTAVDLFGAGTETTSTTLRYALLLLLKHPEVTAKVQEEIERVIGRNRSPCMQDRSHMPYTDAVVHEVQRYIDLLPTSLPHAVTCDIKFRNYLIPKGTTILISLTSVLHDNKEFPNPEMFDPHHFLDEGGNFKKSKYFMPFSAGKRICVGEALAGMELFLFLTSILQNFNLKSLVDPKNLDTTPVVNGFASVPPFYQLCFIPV
Chain of FAD-linked sulfhydryl oxidase ALR (P55789 whole entry): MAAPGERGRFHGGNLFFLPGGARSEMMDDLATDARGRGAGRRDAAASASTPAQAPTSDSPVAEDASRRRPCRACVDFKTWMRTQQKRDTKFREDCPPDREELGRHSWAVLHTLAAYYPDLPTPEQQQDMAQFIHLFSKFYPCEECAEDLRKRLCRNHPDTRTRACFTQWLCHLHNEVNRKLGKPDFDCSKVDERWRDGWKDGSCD
Chain of DNA damage-inducible transcript 3 protein (P35639 whole entry): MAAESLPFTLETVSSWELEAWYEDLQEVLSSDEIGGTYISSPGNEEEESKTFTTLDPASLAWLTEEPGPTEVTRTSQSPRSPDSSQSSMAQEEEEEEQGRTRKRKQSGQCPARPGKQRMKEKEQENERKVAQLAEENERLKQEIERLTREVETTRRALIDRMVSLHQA
Chain of Eukaryotic translation initiation factor 4E (P63073 whole entry): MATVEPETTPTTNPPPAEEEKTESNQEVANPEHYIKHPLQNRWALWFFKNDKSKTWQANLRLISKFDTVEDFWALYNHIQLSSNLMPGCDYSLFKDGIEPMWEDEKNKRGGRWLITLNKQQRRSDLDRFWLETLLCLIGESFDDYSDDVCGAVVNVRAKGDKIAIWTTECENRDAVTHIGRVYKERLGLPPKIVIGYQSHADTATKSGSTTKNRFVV
Chain of Cytochrome P450 3A4 (P08684 whole entry): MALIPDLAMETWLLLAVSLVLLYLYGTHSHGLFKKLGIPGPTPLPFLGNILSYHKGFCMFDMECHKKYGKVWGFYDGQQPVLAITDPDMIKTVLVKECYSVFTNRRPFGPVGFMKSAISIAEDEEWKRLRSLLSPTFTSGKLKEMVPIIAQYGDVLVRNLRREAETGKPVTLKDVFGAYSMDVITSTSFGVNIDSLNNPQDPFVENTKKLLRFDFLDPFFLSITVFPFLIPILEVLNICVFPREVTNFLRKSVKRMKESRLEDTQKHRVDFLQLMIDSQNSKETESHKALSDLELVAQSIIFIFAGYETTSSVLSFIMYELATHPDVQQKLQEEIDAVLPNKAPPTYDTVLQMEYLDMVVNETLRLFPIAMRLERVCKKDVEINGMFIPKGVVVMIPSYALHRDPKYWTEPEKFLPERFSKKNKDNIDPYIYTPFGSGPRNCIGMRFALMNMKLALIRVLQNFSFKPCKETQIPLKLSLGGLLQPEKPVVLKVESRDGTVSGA

SMILES: CC1(C)CC2CC(C)(CN2S(=O)(=O)c2ccc(N)cc2)C1 (configuration not stated)
AC50 (CAAX prenyl protease 2): 93.4 µM (active)

SMILES: CC(=O)Nc1ccc(N2CCCCC2)c(C(=O)Nc2cccc(C)c2)c1
EC50 [1]: 50.5 µM (active)
IC50 [2]: > 64 µM (inactive)
EC50 [3]: > 38 µM (not active)
AC50 (Cytochrome P450 2C9): 12.6 µM (inconclusive)
AC50 (Cytochrome P450 2D6): 17.8 µM (inconclusive)
AC50 (Cytochrome P450 3A4): 22.4 µM (inconclusive)

SMILES: Sc1nnc(-c2ccncc2)n1/N=C/C=C/c1ccccc1
IC50 [4]: > 100 µM (inactive)
IC50 [5]: 125 µM (active)
AC50 [6]: 8.12 µM (active)
IC50 [7]: 2.76 µM (active)

Now from value to molecule, other results behind:

EC50 [8]: 70 µM (active)
SMILES: Cc1cccc(C)c1N1CCN(c2ccc3nnc(C(F)(F)F)n3n2)CC1
Absolute IC50 (CHOP) [9]: 10 µM

EC50 (Hexokinase HKDC1): 18.3 µM (active)
EC50 (Hexokinase-1): > 80 µM (inactive)
SMILES: O=NNc1nc2ccccc2n1Cc1ccccc1

EC50 (Hexokinase HKDC1): 7.65 µM (active)
EC50 (Hexokinase-1): > 80 µM (inactive)
SMILES: O=S(=O)(c1ccc(NC(=S)NN=C(Cc2ccccc2)Cc2ccccc2)cc1)N1CCOCC1
